From patent US5824647A, “Chemotactic wound healing peptides” (priority 1995, dated 1998)

How the values were obtained:
[1] = tested on: human peripheral blood monocytes; experiment: Monocyte chemotaxis in modified Boyden chambers; type: cell-based; conditions: peptide in lower compartment of modified Boyden chamber
Excerpt: (§1) Human peripheral blood neutrophils and monocytes, isolated from whole blood using standard techniques may also be used in the chemotaxis assays, in a manner similar to infant foreskin fibroblasts, to measure the chemotactic activity of the peptides towards inflammatory cells. Such cells may also be maintained in supplemented MEM as above, to which 5-10% FCS may be added. When using neutrophils and monocytes, instead of fibroblasts, the polycarbonate filters used in the modified Boyden chambers had pore sizes of 2 and 3 microns, respectively. As above, all assays were carried out in quadruplicate.
The following 7-mer peptides (peptides 368-374, corresponding to amino acids 368-374 of human TGF-β1): VYYVGRK (SEQ ID NO. 1), LYYIGKT (SEQ ID NO. 2), LYYVGRT (SEQ ID NO. 3), IYYVGRN (SEQ ID NO. 4) and IYYVGRT (SEQ ID NO. 5) were synthesized by the Merrifield technique, purified by HPLC, and tested at different concentrations in the same assay for their ability to stimulate chemotaxis of human peripheral blood monocytes in vitro modified Boyden chambers.

[2] = tested on: Human peripheral blood neutrophils; experiment: Neutrophil chemotaxis in modified Boyden chambers; type: cell-based; conditions: peptide in lower compartment of modified Boyden chamber
Excerpt: as §1

[3] = tested on: infant foreskin fibroblasts; experiment: Fibroblast chemotaxis in modified Boyden chambers (incl. checkerboard and deactivation studies); type: cell-based, human; conditions: for fibroblast chemotaxis / migration (in words): peptide in lower compartment of modified Boyden chamber; for Mean Fibroblasts per 20 OIF + SEM: Experiment 1, lower compartment: TGF-β1 50 pg/ml, peptide 368-374 1.4 × 10^-5 M, peptide 364-378 6.7 × 10^-7 M, fibronectin 20 μg/ml
Protocol: Target cells used in in vitro chemotaxis assays were infant foreskin fibroblasts obtained by establishing monolayer cultures from explants of tissue. Cells were maintained in Eagle's minimum essential medium (MEM) supplemented with non-essential amino acids, antibiotics, 50 ug/ml ascorbic acid, and 9% fetal calf serum (FCS). Cells were passaged by trypsinization every 3-5 days.
Infant foreskin fibroblasts were harvested from monolayer culture by gentle trypsinization, washed twice in serum-free Eagles's MEM and adjusted to a final concentration of 250,000 cells/ml. The cell suspension (0.4 ml) was added to the upper compartments of blind well modified Boyden chemotaxis chambers. The peptides of the invention being assayed for chemotactic activity were solubilized in glycylglycine (0.015M) buffered NaCl (0.14M), pH 7.2, hereinafter referred to as GGBS, and diluted 50% with serum-free MEM. Test substances were added to the lower compartment of the chemotaxis chambers. Gelatin-treated polycarbonate filters (8 micron pore size) were interposed between the lowest compartment and the upper cell compartment. Loaded chambers were incubated at 37° C. in a humidified atmosphere containing 5% CO2 for 150 minutes. After incubation, the chambers were disassembled, the filters removed, stained with hematoxylin, and mounted on glass cover slips. Fibroblast chemotaxis was quantitated by counting the number of fibroblasts in 20 oil immersion fields (OIF) that migrated and adhered to the lower surface of each filter. Samples were tested in quadruplicate and results are expressed as mean number of fibroblasts per 20 OIF±standard error of the mean (SEM). Chemotaxis neutralization studies were performed by adding TGF-β1 or fibronectin to the upper cell compartment and testing for effects on fibroblast migration to the TGF-β peptides.
Zigmond-Hirsch checkerboard analysis (Zigmond & Hirsch, J. Exptl. Med. 137:387, 1972) was performed to determine whether the 7-mer peptide 368-374 (Val Tyr Tyr Val Gly Arg Lys) induced chemotaxis of fibroblasts, monocytes and neutrophils.
Deactivation studies were utilized to determine whether the peptides of the invention containing the 7-mer peptide amino acid sequence induced chemotaxis via cellular receptors and mechanisms utilized by intact TGF-β.

[4] = tested on: infant foreskin fibroblasts; experiment: Collagen production by fibroblasts (modified Peterofsky-Diegelman assay); type: cell-based, human; conditions: [3H]proline incorporation into collagenase-sensitive protein
Protocol: The peptides of the invention were also found to stimulate collagen production by fibroblasts. Collagen production by fibroblasts in response to the peptides of the present invention was measured utilizing a modified Peterofsky-Diegelman assay. The assay is used to determine whether the peptides of the invention stimulate or inhibit collagen production by fibroblasts.
Low passage (4-12 subpassages) infant foreskin fibroblasts were plated out at a density of 10^5 cells/well in Falcon 3008 multiwell plates in complete maintenance medium containing 10% FCS. After cells reached confluency (72 hr), the medium was changed daily for 3 days, each time being replaced with serum-free maintenance medium containing fresh ascorbic acid. Samples (50 μl) were added to triplicate wells containing 450 μl serum-free MEM supplemented with fresh ascorbic acid and [^3 H]-proline (sp. act. 20 Ci/mmole), but no non-essential amino acids. After an additional 24 hr of culture, supernatants were reacted with protease-free bacterial collagenase to digest all collagen. Similar aliquots of unreacted supernatants and bacterial collagenase-treated supernatants were precipitated with cold 10% trichloroacetic acid (TCA) and were centrifuged for 5 minutes in a Beckman microfuge. Aliquots of the supernatants, after TCA precipitated proteins were pelleted, were placed in vials containing Hydrofluor and then were counted in a scintillation counter. CPM from TCA precipitated supernatants not reacted with bacterial collagenase were subtracted from each culture. The resulting CPM was a reflection of the collagen produced by that culture.
A modified Peterofsky-Diegelmann assay was used to screen peptide samples for their ability to stimulate or inhibit collagen production. Low passage (4-12 subpassages) infant foreskin fibroblast were plated out at a density of 10^5 cells/well of Falcon 3008 multiwell plates in complete maintenance medium containing 10% FCS. After cells reached confluency (72 hr) the medium was changed daily for 3 days, each time being replaced with serum-free maintenance medium containing fresh ascorbic acid. Samples ([…]) were added to triplicate wells containing […] serum free MEM supplemented with fresh ascorbic acid and [^3 H]-proline (sp. act. 20 Ci/mmole), but no non-essential amino acids. After an additional 24 hours of culture, supernatants were reacted with protease-free bacterial collagenase to digest all collagen. Similar aliquots of unreacted supernatants and bacterial collagenase-treated supernatants were precipitated with cold 10% trichloroacetic acid (TCA) and were centrifuged for 5 minutes in a Beckman microfuge. Aliquots of the supernatants, after TCA precipitated proteins were pelleted, were placed in vials containing Hydrofluor and then were counted in a scintillation counter. CPM from TCA precipitated supernatants not reacted with bacterial collagenase were subtracted from each culture. The resulting CPM was a reflection of the collagen produced by that culture.
Collagen production was measured following administration of the various 7-mer peptides 368-374 (SEQ ID NOs. 1-5) to fibroblasts. Peptides […] (SEQ ID NO. 1), LYYIGKT (SEQ ID NO. 2), LYYVGRT (SEQ ID NO. 3), IYYVGRN (SEQ ID NO. 4) and IYYVGRT (SEQ ID NO. 5) were synthesized by the Merrifield technique, purified by HPLC, and tested at different concentrations in the same assay for their ability to stimulate production of collagen in confluent cultures of infant foreskin fibroblasts. Collagen production was measured by incorporation of [^3 H]proline into collagenase-sensitive protein. All samples were tested in triplicate, and values represent the mean of triplicate determinations. Data are expressed as "% stimulation" of collagen production relative to control production in cultures with plain culture medium only added. […]

[5] = Media added to upper compartment
[6] = TGF-β1 (50 pg/ml) added to upper compartment

Row | Substance | monocyte chemotaxis / migration (in words) [1] | neutrophil chemotaxis / migration (in words) [2] | fibroblast chemotaxis / migration (in words) [3] | Mean Fibroblasts per 20 OIF + SEM [3, 5] | Mean Fibroblasts per 20 OIF + SEM [3, 6] | collagen production by fibroblasts (in words) [4]
1 | 280-293: peptide derived from the N-terminal half of TGF-β1, residues 280-293 (ALDTNYCFSSTEKN; printed: Ala Leu Asp Thr Asn Tyr Cys Phe Ser Ser Thr Glu Lys Asn) [Peptide 280-293] | none of the peptides derived from the N-terminal half of TGF-β1 (peptides 280-293, 296-322 and 328-354) were able to induce migration | none of the peptides derived from the N-terminal half of TGF-β1 (peptides 280-293, 296-322 and 328-354) were able to induce migration | none of the peptides derived from the N-terminal half of TGF-β1 (peptides 280-293, 296-322 and 328-354) were able to induce migration | – | – | –
2 | 296-322: peptide derived from the N-terminal half of TGF-β1, residues 296-322 (VRQLYIDFRKDLGWKWIHEPKGYHANF; printed: Val Arg Gln Leu Tyr Ile Asp Phe Arg Lys Asp Leu Gly Trp Lys Trp Ile His Glu Pro Lys Gly Tyr His Ala Asn Phe) [Peptide 296-322] | none of the peptides derived from the N-terminal half of TGF-β1 (peptides 280-293, 296-322 and 328-354) were able to induce migration | none of the peptides derived from the N-terminal half of TGF-β1 (peptides 280-293, 296-322 and 328-354) were able to induce migration | none of the peptides derived from the N-terminal half of TGF-β1 (peptides 280-293, 296-322 and 328-354) were able to induce migration | – | – | –
3 | 328-354: peptide derived from the N-terminal half of TGF-β1, residues 328-354 (PYIWSLDTQYSKVLALYNQHNPGASAA; printed: Pro Tyr Ile Trp Ser Leu Asp Thr Gln Tyr Ser Lys Val Leu Ala Leu Tyr Asn Gln His Asn Pro Gly Ala Ser Ala Ala) [Peptide 328-354] | none of the peptides derived from the N-terminal half of TGF-β1 (peptides 280-293, 296-322 and 328-354) were able to induce migration | none of the peptides derived from the N-terminal half of TGF-β1 (peptides 280-293, 296-322 and 328-354) were able to induce migration | none of the peptides derived from the N-terminal half of TGF-β1 (peptides 280-293, 296-322 and 328-354) were able to induce migration | – | – | –
4 | Fibronectin [reference compound] | – | – | – | 74 ± 2 Fibroblasts per 20 OIF | 71 ± 6 Fibroblasts per 20 OIF | –
5 | IYYVGRN [7-mer peptide 368-374 homolog] | induced monocyte chemotaxis at all of the concentrations tested | – | induced fibroblast chemotaxis at all of the concentration tested | – | – | stimulated collagen production to some degree
6 | IYYVGRT [7-mer peptide 368-374 homolog] | induced monocyte chemotaxis at all of the concentrations tested | – | induced fibroblast chemotaxis at all of the concentration tested | – | – | stimulated collagen production to some degree
7 | LYYVGRT [7-mer peptide 368-374 homolog] | induced monocyte chemotaxis at all of the concentrations tested | – | induced fibroblast chemotaxis at all of the concentration tested | – | – | stimulated collagen production to some degree
8 | PIVYYVGRKPKVEQLSNMIVRS (PIVYYVGRKPKVEQLSNMIVRS) [Peptide 366-387] | induced migration of fibroblasts, monocytes and neutrophils in a dose dependent fashion | induced migration of fibroblasts, monocytes and neutrophils in a dose dependent fashion | induced migration of fibroblasts, monocytes and neutrophils in a dose dependent fashion | – | – | –
9 | TGF-β1: transforming growth factor β1, 50 pg/ml, chemoattractant control and deactivating agent [reference compound] | – | – | – | 7 ± 1 Fibroblasts per 20 OIF | 21 ± 2 Fibroblasts per 20 OIF | –
10 | VPQALEPLPIVYYVGRKPKVEQLSN (VPQALEPLPIVYYVGRKPKVEQLSN) [Peptide 358-382] | induced migration of fibroblasts, monocytes and neutrophils in a dose dependent fashion | induced migration of fibroblasts, monocytes and neutrophils in a dose dependent fashion | induced migration of fibroblasts, monocytes and neutrophils in a dose dependent fashion | – | – | –
11 | VSQDLEPLTILYYIGKTPKIEQLSNMIVKSC | – | – | – | – | – | stimulated collagen production
